The source of these data is patent publication US11655448B2, “Placenta-derived matrix and methods of preparing and use thereof” (LIFENET HEALTH, priority 2015, dated 2023).

Assay [1] concerns dorsal root ganglia (DRGs). Put plainly: Dorsal root ganglia attachment and growth on substrates. Type of assay: cell-based. Here is the method:
The ability for ectodermal cell attachment and growth on HuMATRIX was also assessed using dorsal root ganglia (DRGs). Near 100% attachment of DRGs was observed on HuMATRIX, Laminin, and decellularized placenta with urea extraction, but nearly no DRGs attached to culture plastic alone, with the cells stained for beta-III-tubulin and DAPI to assess the cell morphology.

In assay [2] the test system is MCF7 tumor cell. To be noted: reported in the literature; cited from earlier work.

Consider Laminin, for which, in assay [1], the “attachment of DRGs” value is listed as around 100%.

B1: Placental lactogen: human chorionic sommatomammotropin (aka placental lactogen) found in HuMATRIX (protein, UniProt P0DML2 27-217, looked up)
Chorionic somatomammotropin …: VQTVPLSRLFDHAMLQAHRAHQLAIDTYQEFEETYIPKDQKYSFLHDSQTSFCFSDSIPTPSNMEETQQKSNLELLRISLLLIESWLEPVRFLRSMFANNLVYDTSDSDDYHLLKDLEEGIQTLMGRLEDGSRRTGQILKQTYSKFDTNSHNHDALLKNYGLLYCFRKDMDKVETFLRMVQCRSVEGSCGF
B1: the “increase in MCF7 tumor cell proliferation” value in assay [2] is given as 4.4 fold.
